In brackets after ≈: the same amount, converted by molar mass.
Tests used:
Experiment in all cases: antimycotic in-vitro activity, serial dilution test
Format in all cases: cell-based
[1] = test system: Torulopsis glabrata; conditions: Nakaseomyces glabratus; Fleischextrakt-Traubenzucker-Bouillon; 28°C to 37 C; 24 to 96 hours; inoculum 5 x 10^3 to 10^4 germs/ml; read-out: MHK-Werte in µg/ml Närmedium Torulopsis glabrata
Procedure: (§1) Die in-vitro-Prüfungen wurden im Reihenverdünnungstest mit Keiminokula von durchschnittlich 5 x 10^3 bis 10^4 Keimen/mi Substrat durchgeführt. Als Nährmedium dienten • a) für Dermatophyten und Schimmelpilze: Sabouraud's milieu d'epreuve • b) für Hefen: Fleischextrakt-Traubenzucker-Bouillon.
(§2) Die Bebrütungstemperatur betrug 28°C bis 37 C, die Bebrütungsdauer lag bei 24 bis 96 Stunden bei Hefen und 96 Stunden bei Dermatophyten und Schimmelpilzen.

[2] = test system: Aspergillus fumigatus; conditions: Sabouraud's milieu d'epreuve, 28°C to 37 C, 96 hours, inoculum 5 x 10^3 to 10^4 germs/ml, read-out: MHK-Werte in µg/ml Närmedium Aspergillus fumigatus
Procedure: as §1, §2

[3] = test system: Trichophyton mentagr.; conditions: Sabouraud's milieu d'epreuve, 28°C to 37 C, 96 hours, inoculum 5 x 10^3 to 10^4 germs/ml, read-out: MHK-Werte in µg/ml Närmedium Trichophyton mentagr.
Procedure: as §1, §2

[4] = test system: Candida albicans; conditions: Fleischextrakt-Traubenzucker-Bouillon, 28°C to 37 C, 24 to 96 hours, inoculum 5 x 10^3 to 10^4 germs/ml, read-out: MHK-Werte in µg/ml Närmedium Candida albicans
Procedure: as §1, §2

[5] = test system: Microsporum canis; conditions: Sabouraud's milieu d'epreuve, 28°C to 37 C, 96 hours, inoculum 5 x 10^3 to 10^4 germs/ml, read-out: MHK-Werte in µg/ml Närmedium Microsporum canis
Procedure: as §1, §2

MIC [1] | MIC [2] | MIC [3] | MIC [4] | MIC [5] | Structure (SMILES)
64 µg/mL (≈ 151 µM) | > 64 µg/mL | 64 µg/mL (≈ 151 µM) | 16 µg/mL (≈ 37.7 µM) |  | OC(Cn1cncn1)(c1ccc(Cl)cc1)C1(Oc2ccc(Cl)cc2Cl)CC1 (stereo not drawn) [(B), 1-(4-Chlorphenyl)-1-[1-(2,4-dichiorphenoxy)-cycloprop-1-yl]-2-(1,2,4-triazol-1-yl)-ethan-1-ol]
16 µg/mL (≈ 48.8 µM) | 2 µg/mL (≈ 6.09 µM) | < 1 µg/mL | 16 µg/mL (≈ 48.8 µM) | < 1 µg/mL | OC(COc1ccc(Cl)cc1)(Cn1cncn1)C1(Cl)CC1 (stereo not drawn) [Beispiel 1, 2-(1-Chlorcyclopropyl)-1-(4-chlorphenoxy)-3-(1,2,4-triazol-1-yl)-propan-2-ol]
 | > 64 µg/mL | > 64 µg/mL | > 64 µg/mL |  | OC(Cn1cncn1)(c1ccc(Cl)cc1)C1(F)CC1 (stereo not drawn) [(A), 1-(4-Chlorphenyl)-1-(1-fluor-cycloprop-1-yl)-2-(1,2,4-triazol-1-yl)-ethan-1-ol]

— patent publication EP0308783A2, “Antimycotic preparations” (BAYER AG, priority 1987, dated 1989)
